Among the data in PMC6700428, “Purification and characterization of an isoflavones conjugate hydrolyzing β-glucosidase (ICHG) from Cyamopsis tetragonoloba (guar)” (Biochemistry and Biophysics Reports, 2019) are Km and stoichiometry N values, retold here.

Assay [1] concerns T1, Isoflavones conjugate hydrolyzing β-glucosidase (ICHG).
T1 construct: native, purified from dried seeds (ammonium sulphate, Sephadex G-75, DEAE-Sepharose); ~50 kDa subunit, ~150 kDa native, probable homotrimer; five internal peptides closest to Cicer arietinum beta-glucosidase
The assay can be described thus: 4-nitrophenol release at […] nm, Lineweaver-Burk plot. Type of assay: biochemical, Cyamopsis tetragonoloba. Particulars: optimum pH 4.5 and 37 °C; citrate phosphate buffer 0.1 M; PNPG 0.1-5 mM.

The target in assay [2] is Isoflavones conjugate hydrolyzing β-glucosidase (ICHG) from Cyamopsis tetragonoloba (guar) (Cyamopsis tetragonoloba (guar)). The experiment in a line: SEC; Sephadex G-75 column (1.8 x 50 cm), 0.02 M sodium phosphate buffer pH 6, standard proteins of 66 to 124 kDa; native mass (~150 kDa) compared with the subunit mass on SDS-PAGE (~50 kDa).

`O=[N+]([O-])c1ccc(O[C@@H]2O[C@H](CO)[C@@H](O)[C@H](O)[C@H]2O)cc1` [para nitrophenyl -β-D- glucopyranoside]: the Michaelis-Menten constant (Km) in assay [1] was determined as 860 µM. “Isoflavones conjugate hydrolyzing β-glucosidase (ICHG) from Cyamopsis tetragonoloba (guar) (enzyme)”: the stoichiometry N in assay [2] was 3.
